From ChEMBL document CHEMBL4732163 (Eur J Med Chem, 2021)

Assays:
[1] = tested on: dengue virus type 2; experiment: Antiviral activity against DENV-2 New Guinea C infected in human Huh-7 cells preincubated for 1 hr followed by viral infection and measured after 48 hrs by Renilla luciferase reporter gene assay
[2] = Cytotoxicity against DENV-2 New Guinea C infected human Huh-7 cells assessed as reduction in cell viability preincubated for 1 hr followed by viral infection and measured after 48 hrs by Alamar blue assay; assay type: cell-based; settings: Huh-7 cells infected with DENV-2 New Guinea C, time 49 hrs
[3] = target: T1, Cyclin-G-associated kinase (Homo sapiens, UniProt O14976); experiment: Inhibition of tracer 222 binding to GAK (unknown origin) incubated for 1 hr by Lanthascreen TR-FRET assay
T1 sequence (O14976 whole entry): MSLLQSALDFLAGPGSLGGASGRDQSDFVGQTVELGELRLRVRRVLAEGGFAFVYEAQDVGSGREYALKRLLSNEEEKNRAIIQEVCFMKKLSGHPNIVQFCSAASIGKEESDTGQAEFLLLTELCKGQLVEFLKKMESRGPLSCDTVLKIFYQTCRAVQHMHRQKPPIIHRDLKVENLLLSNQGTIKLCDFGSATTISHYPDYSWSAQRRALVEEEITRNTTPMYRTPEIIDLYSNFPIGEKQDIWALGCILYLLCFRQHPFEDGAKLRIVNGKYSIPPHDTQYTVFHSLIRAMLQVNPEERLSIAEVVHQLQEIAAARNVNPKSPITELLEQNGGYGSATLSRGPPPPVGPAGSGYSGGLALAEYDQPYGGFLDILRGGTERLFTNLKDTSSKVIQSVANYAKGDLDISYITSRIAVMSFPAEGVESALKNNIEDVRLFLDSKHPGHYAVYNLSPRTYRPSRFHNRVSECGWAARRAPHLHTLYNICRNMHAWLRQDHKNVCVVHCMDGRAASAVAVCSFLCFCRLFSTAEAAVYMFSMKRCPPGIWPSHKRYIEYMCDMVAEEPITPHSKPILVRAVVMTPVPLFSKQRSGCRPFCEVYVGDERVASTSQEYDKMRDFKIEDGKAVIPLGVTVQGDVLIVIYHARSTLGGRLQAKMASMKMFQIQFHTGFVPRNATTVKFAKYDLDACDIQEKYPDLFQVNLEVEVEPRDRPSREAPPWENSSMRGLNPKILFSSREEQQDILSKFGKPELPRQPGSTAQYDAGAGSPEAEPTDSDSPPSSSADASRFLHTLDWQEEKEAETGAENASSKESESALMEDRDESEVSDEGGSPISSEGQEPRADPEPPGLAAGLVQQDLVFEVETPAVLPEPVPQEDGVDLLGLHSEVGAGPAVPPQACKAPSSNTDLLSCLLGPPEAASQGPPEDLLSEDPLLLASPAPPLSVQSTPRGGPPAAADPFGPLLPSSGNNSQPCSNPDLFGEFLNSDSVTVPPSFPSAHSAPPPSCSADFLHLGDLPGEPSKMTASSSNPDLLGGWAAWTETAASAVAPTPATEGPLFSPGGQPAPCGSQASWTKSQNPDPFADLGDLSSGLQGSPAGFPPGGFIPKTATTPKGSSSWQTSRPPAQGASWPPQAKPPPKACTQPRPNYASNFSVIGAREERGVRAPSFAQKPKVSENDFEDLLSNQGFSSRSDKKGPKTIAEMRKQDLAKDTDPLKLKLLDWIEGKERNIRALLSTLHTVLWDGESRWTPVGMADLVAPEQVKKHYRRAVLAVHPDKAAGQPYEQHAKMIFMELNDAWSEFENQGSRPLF

[4] = target: Cyclin-dependent kinase 7 (Homo sapiens) (UniProt P50613); experiment: Inhibition of wild-type human full length CDK7 (M1 to L344 residues) expressed in mammalian expression system assessed as residual activity at 10 uM by Kinomescan method relative to control
[5] = target: Receptor-type tyrosine-protein kinase FLT3 (Homo sapiens) (UniProt P36888); experiment: Inhibition of wild-type human partial length FLT3 (V592 to Y969 residues) expressed in bacterial expression system assessed as residual activity at 10 uM by Kinomescan method relative to control
[6] = target: Mast/stem cell growth factor receptor Kit (Homo sapiens) (UniProt P10721); experiment: Inhibition of wild-type human partial length KIT (I571 to D952 residues) expressed in bacterial expression system assessed as residual activity at 10 uM by Kinomescan method relative to control
[7] = target: MAP kinase-interacting serine/threonine-protein kinase 2 (Homo sapiens) (UniProt Q9HBH9); experiment: Inhibition of wild-type human partial length MKNK2 (G63 to S388 residues) expressed in mammalian expression system assessed as residual activity at 10 uM by Kinomescan method relative to control
[8] = target: Platelet-derived growth factor receptor alpha (Homo sapiens) (UniProt P16234); experiment: Inhibition of wild-type human partial length PDGFRA (V575 to D1002 residues) expressed in mammalian expression system assessed as residual activity at 10 uM by Kinomescan method relative to control
[9] = target: Platelet-derived growth factor receptor beta (Homo sapiens) (UniProt P09619); experiment: Inhibition of wild-type human partial length PDGFRB (V582 to Y1009 residues) expressed in bacterial expression system assessed as residual activity at 10 uM by Kinomescan method relative to control
[10] = target: High affinity nerve growth factor receptor (Homo sapiens) (UniProt P04629); experiment: Inhibition of wild-type human partial length TRKA (G475 to G790 residues) expressed in mammalian expression system assessed as residual activity at 10 uM by Kinomescan method relative to control
High affinity nerve growth factor receptor (Homo sapiens), sequence (P04629 33-796 limits assumed): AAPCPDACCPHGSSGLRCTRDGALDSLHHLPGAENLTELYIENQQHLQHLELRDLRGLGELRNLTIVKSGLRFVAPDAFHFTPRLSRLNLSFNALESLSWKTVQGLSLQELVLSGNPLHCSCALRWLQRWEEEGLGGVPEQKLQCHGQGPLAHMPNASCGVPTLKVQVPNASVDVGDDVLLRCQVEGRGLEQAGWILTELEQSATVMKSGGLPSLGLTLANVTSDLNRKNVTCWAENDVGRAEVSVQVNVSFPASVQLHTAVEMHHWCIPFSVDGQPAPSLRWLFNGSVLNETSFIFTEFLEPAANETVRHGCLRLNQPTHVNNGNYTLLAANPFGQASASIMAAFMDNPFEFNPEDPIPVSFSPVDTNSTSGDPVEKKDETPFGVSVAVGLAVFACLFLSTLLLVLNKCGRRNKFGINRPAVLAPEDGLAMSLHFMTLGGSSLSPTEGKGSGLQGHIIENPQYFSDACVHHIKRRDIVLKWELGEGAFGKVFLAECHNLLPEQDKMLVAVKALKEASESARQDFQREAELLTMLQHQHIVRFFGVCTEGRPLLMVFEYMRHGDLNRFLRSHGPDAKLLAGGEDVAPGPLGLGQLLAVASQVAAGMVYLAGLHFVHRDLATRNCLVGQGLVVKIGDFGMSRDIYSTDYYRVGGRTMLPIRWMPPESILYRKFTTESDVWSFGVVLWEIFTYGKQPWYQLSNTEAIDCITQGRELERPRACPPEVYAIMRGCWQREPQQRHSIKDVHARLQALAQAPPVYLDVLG

Mast/stem cell growth factor receptor Kit (Homo sapiens), sequence (P10721 whole entry, the tested form may be a part): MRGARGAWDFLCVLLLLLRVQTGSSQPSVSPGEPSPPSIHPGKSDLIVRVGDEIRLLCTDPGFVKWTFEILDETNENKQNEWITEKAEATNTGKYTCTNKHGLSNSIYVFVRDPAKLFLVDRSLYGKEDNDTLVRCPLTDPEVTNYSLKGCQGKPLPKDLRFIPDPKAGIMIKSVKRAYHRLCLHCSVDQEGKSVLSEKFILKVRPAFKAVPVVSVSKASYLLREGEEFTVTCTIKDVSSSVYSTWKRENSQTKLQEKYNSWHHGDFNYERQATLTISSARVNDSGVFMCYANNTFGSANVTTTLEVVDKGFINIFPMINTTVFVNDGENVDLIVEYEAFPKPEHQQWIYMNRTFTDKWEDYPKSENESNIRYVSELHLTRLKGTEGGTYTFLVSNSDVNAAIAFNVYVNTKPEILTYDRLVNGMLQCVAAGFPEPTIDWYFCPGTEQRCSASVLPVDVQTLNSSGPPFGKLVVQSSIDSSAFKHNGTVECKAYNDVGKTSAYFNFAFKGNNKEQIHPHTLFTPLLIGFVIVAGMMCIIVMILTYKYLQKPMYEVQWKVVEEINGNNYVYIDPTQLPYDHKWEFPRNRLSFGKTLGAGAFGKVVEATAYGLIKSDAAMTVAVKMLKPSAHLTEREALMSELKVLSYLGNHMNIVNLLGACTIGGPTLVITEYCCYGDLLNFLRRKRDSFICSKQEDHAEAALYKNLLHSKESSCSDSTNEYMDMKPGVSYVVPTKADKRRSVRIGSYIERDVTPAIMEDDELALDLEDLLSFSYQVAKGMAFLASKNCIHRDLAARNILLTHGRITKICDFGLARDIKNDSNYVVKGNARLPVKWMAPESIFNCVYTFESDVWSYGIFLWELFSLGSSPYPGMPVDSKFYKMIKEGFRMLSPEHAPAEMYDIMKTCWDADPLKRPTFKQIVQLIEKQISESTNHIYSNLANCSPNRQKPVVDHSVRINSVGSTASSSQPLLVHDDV
Platelet-derived growth factor receptor alpha (Homo sapiens), sequence (P16234 whole entry, the tested form may be a part): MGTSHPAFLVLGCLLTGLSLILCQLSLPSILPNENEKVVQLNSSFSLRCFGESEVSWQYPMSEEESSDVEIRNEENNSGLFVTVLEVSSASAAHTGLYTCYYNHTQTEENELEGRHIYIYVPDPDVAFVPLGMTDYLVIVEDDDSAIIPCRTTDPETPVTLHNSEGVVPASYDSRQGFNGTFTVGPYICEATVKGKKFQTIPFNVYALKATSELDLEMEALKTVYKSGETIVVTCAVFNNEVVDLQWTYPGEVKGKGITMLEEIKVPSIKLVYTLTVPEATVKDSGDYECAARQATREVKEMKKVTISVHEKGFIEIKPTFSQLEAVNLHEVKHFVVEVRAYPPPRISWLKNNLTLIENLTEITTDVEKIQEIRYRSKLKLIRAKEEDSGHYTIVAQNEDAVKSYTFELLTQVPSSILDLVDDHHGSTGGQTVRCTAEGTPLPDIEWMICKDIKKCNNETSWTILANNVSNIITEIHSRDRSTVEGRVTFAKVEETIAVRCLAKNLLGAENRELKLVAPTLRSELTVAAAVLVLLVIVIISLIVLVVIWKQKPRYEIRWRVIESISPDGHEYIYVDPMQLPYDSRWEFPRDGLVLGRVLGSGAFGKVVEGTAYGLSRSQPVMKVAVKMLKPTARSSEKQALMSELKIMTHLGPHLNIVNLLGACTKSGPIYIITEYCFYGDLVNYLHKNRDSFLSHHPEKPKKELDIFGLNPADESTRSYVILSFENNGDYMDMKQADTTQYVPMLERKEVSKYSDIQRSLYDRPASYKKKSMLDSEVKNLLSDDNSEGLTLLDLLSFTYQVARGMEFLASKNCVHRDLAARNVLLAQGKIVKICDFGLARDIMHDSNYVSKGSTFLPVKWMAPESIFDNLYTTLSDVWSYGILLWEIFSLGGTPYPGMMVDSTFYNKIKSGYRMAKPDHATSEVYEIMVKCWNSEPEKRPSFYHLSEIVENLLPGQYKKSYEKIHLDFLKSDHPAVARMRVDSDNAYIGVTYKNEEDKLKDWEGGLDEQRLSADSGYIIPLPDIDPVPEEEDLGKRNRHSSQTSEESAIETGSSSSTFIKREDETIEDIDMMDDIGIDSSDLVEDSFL
Receptor-type tyrosine-protein kinase FLT3 (Homo sapiens), sequence (P36888 whole entry, the tested form may be a part): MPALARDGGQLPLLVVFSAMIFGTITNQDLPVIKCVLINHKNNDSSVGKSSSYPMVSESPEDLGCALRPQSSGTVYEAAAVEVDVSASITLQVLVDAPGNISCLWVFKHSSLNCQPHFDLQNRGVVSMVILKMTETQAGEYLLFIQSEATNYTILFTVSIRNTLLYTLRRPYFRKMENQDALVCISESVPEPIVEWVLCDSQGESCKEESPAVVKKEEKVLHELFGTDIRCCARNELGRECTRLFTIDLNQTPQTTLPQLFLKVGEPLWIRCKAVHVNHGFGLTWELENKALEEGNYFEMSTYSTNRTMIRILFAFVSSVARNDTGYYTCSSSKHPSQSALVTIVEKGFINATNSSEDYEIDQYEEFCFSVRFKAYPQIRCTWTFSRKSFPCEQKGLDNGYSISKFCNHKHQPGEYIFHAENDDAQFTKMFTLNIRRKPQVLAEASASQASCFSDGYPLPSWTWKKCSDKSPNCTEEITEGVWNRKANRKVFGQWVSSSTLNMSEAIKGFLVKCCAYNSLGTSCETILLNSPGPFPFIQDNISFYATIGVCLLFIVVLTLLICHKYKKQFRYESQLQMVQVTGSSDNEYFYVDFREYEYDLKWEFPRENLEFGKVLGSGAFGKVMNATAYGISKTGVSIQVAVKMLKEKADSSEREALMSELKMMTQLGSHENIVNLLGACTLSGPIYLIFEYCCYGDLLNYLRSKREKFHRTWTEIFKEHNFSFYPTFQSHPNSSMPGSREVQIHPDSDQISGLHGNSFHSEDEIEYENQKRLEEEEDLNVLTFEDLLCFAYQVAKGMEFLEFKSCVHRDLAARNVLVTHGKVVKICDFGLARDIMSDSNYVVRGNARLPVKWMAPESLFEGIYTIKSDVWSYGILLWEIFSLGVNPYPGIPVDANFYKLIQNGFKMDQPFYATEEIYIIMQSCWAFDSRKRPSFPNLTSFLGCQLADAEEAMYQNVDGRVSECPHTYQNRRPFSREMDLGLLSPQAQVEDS
Cyclin-dependent kinase 7 (Homo sapiens), sequence (P50613 whole entry, the tested form may be a part): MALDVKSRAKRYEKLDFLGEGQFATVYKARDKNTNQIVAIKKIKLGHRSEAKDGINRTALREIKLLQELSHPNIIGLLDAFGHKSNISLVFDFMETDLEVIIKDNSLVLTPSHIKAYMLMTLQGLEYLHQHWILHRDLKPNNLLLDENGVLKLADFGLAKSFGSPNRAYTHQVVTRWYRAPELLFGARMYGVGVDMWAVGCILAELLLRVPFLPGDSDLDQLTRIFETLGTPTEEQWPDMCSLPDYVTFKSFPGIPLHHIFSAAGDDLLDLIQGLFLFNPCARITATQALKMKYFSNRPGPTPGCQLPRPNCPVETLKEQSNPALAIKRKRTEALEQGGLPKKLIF
MAP kinase-interacting serine/threonine-protein kinase 2 (Homo sapiens), sequence (Q9HBH9 whole entry, looked up, the tested form may be a part): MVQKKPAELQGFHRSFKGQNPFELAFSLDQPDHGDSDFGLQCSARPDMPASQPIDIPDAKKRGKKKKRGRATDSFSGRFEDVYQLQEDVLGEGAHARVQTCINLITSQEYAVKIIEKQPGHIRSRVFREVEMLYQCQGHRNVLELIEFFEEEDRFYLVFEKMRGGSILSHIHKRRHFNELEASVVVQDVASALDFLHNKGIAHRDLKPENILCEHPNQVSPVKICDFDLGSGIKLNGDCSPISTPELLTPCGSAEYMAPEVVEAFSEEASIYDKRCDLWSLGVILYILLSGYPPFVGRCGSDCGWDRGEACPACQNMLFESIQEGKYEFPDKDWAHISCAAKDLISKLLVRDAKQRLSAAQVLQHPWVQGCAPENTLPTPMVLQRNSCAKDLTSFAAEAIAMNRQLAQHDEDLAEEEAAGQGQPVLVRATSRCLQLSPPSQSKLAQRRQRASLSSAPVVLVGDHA

SMILES	EC50 [1]	IC50 [3]	CC50 at 48 h [2]	other results
COc1cc(-c2cnc3c(N4CCCC(CNC(=O)C5CCCC5)C4)snc3c2)ccc1N (stereo not drawn)	2.6 µM	–	> 20 µM	–
CCC(=O)Nc1cccc(-c2snc3cc(-c4ccc(N)c(OC)c4)cnc23)c1	1.9 µM	–	9.9 µM	–
COc1cc(-c2cnc3c(N4C[C@@H](C)O[C@@H](C)C4)snc3c2)ccc1N	0.96 µM	–	> 20 µM	–
C#Cc1cccc(Nc2ncnc3cc(OCCOC)c(OCCOC)cc23)c1 [ERLOTINIB]	12 µM	–	> 20 µM	–
COc1cc(-c2cnc3c(-c4cccc(NC(=O)C5CCCC5)c4)snc3c2)ccc1N	1.8 µM	–	13 µM	–
COc1cc(-c2cnc3c(N4CCOCC4)snc3c2)ccc1N	–	0.051 µM	–	–
COc1cc(-c2cnc3c(-c4cccc(NC(=O)C5CC5)c4)snc3c2)ccc1N	3.6 µM	–	15 µM	–
COc1cc(-c2cnc3c(N4CCC[C@@H](CNC(=O)C5CC5)C4)snc3c2)ccc1N	–	0.36 µM	–	–
COc1cc(-c2cnc3c(-c4cccc(NC(=O)N5CCCC5)c4)snc3c2)ccc1N	6 µM	–	> 20 µM	–

Now from value to compound, other results behind:

EC50 [1]	IC50 [3]	SMILES	CC50 at 48 h [2]	other results
–	> 1.1 µM	CCC(=O)Nc1ccc(-c2snc3cc(-c4ccc(N)c(OC)c4)cnc23)cc1	–	–
7.5 µM	0.013 µM	COc1cc(-c2cnc3c(N4CCC[C@H](CNC(=O)C5CC5)C4)snc3c2)ccc1N	> 20 µM	Activity [4]: < 10%; Activity [5]: < 10%; Activity [6]: < 10%; Activity [7]: < 10%; Activity [8]: < 10%; Activity [9]: < 10%; Activity [10]: < 10%
7.9 µM	–	COc1cc(-c2cnc3c(-c4cccc(NC(=O)N5CCOCC5)c4)snc3c2)ccc1N	> 20 µM	–
4.1 µM	–	COc1cc(-c2cnc3c(N4CCCC(CNC(=O)N5CCCC5)C4)snc3c2)ccc1N (stereo not drawn)	> 20 µM	–
4 µM	0.014 µM	COc1cc(-c2cnc3c(N4CCCC(CNC(=O)C5CC5)C4)snc3c2)ccc1N (stereo not drawn)	> 20 µM	–
3.8 µM	–	COc1cc(-c2cnc3c(-c4cccc(NC(=O)C(C)C)c4)snc3c2)ccc1N	14 µM	–
3.9 µM	–	COc1cc(-c2cnc3c(N4CCCC(CNC(=O)c5ccccc5)C4)snc3c2)ccc1N (stereo not drawn)	> 20 µM	–
